Results as given in ChEMBL document CHEMBL1144857, “4-Biphenyl and 2-naphthyl substituted 6,7-dimethoxytetrahydroisoquinoline derivatives as potent P-gp modulators” (Bioorg Med Chem, 2008).
The source made the active and inactive calls. The rule behind the calls is not given here.

Target: ATP-dependent translocase ABCB1 (Homo sapiens, UniProt P08183)
Experiment: Activation of human P-gp ATPase in human Caco-2 cells at 100 uM
Format: cell-based
Conditions: caco-2, 100 µM

Sequence of ATP-dependent translocase ABCB1 (P08183 whole entry): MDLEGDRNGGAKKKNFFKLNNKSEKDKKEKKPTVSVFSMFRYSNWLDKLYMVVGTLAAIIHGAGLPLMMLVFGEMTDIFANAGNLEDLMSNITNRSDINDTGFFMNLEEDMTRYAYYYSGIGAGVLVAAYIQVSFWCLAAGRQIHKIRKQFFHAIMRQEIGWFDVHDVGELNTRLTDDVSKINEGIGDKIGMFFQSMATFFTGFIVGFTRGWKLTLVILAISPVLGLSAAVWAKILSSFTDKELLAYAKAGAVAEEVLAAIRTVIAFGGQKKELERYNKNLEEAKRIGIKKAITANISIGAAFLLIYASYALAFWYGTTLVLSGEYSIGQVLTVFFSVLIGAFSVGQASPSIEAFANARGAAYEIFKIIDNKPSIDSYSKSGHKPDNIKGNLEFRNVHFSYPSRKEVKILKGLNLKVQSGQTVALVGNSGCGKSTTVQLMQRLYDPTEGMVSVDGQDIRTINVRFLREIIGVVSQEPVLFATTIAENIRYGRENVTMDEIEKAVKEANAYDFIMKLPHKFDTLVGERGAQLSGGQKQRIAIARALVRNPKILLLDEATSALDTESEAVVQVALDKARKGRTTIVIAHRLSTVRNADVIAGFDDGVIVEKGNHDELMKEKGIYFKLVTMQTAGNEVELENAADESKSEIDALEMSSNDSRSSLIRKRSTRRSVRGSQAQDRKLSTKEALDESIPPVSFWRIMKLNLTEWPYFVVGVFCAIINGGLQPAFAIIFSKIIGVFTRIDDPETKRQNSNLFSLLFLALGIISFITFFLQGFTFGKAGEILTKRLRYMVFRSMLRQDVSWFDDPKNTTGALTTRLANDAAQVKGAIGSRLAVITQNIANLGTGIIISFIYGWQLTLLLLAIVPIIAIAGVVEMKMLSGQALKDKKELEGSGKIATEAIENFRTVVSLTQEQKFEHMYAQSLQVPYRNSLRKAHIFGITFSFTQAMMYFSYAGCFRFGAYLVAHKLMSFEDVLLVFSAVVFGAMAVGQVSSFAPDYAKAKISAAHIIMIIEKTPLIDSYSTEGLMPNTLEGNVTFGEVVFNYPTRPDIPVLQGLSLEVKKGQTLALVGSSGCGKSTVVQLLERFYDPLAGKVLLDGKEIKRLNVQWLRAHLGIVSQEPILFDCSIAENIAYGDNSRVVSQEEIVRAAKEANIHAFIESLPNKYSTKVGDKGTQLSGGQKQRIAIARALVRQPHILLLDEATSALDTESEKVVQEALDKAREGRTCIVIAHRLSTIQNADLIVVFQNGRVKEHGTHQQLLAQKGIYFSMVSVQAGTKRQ

Structure (SMILES) | Activity
COc1cc2c(cc1OC)CN(CC/C=C1\CCCc3c(OC)cccc31)CC2 | Not Active
COc1cc2c(cc1OC)CN(CCc1ccc(NC(=O)c3cccc4c(=O)c5cccc(OC)c5[nH]c34)cc1)CC2 | Not Active
COc1cc2c(cc1OC)CN(Cc1ccc3ccccc3c1)CC2 | Not Active
COc1cc2c(cc1OC)CN(Cc1ccccc1-c1ccccc1)CC2 | Not Active
COc1ccc2cc(CN3CCc4cc(OC)c(OC)cc4C3)ccc2c1 | Not Active

Further lines, results first:

Activity | Structure (SMILES)
10% | COc1cc2c(cc1OC)CN(C(=O)c1ccc3ccccc3c1)CC2
35% | COc1cc2c(cc1OC)CN(C(=O)c1ccc(-c3ccccc3)cc1)CC2
40% | COc1cc2c(cc1OC)CN(C(=O)c1ccc3cc(O)ccc3c1)CC2
Not Active | COc1cc2c(cc1OC)CN(C(=O)c1ccc(-c3ccc(O)cc3)cc1)CC2
Not Active | COc1cc2c(cc1OC)CN(Cc1cccc(-c3ccccc3)c1)CC2
10% | COc1cc2c(cc1OC)CN(Cc1ccc3cc(O)ccc3c1)CC2
Not Active | COc1ccc2cc(C(=O)N3CCc4cc(OC)c(OC)cc4C3)ccc2c1
Not Active | COc1cc2c(cc1OC)CN(Cc1ccc(-c3ccccc3)cc1)CC2
Not Active | COc1cc2c(cc1OC)CN(Cc1ccc(-c3ccc(O)cc3)cc1)CC2

Target: T1, Broad substrate specificity ATP-binding cassette transporter ABCG2 (Homo sapiens, UniProt Q9UNQ0)
T1 sequence (Q9UNQ0 whole entry): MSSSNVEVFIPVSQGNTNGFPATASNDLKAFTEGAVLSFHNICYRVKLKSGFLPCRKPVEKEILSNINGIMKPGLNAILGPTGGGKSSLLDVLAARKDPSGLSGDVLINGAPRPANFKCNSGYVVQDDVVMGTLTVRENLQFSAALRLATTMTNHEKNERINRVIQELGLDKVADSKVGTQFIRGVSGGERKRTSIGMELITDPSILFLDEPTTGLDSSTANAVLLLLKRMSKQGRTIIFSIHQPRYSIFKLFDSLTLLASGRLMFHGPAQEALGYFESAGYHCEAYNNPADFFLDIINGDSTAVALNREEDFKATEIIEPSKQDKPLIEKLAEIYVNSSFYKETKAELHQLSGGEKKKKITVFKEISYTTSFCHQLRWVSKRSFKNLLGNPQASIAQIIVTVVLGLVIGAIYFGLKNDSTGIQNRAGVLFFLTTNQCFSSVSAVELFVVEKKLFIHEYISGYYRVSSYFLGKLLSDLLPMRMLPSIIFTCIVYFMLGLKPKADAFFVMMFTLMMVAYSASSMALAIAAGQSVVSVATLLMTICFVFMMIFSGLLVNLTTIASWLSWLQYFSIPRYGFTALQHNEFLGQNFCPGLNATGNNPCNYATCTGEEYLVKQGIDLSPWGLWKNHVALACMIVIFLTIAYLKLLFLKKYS
Experiment: Inhibition of human BCRP mediated [3H]mitoxantrone transport activity in human Caco-2 cells
Format: cell-based
Conditions: not given

Structure (SMILES) | Activity
COc1cc2c(cc1OC)CN(CC/C=C1\CCCc3c(OC)cccc31)CC2 | Active

Test system: Caco-2
Experiment: (§1) Apparent permeability from basolateral to apical side of human Caco-2 cell membrane
Format: ADME, cell-based
Conditions: not given

Papp | Structure (SMILES)
677 nm/s | COc1ccc2cc(CN3CCc4cc(OC)c(OC)cc4C3)ccc2c1

Test system: not listed separately
Experiment: as §1
Format: ADME, cell-based
Conditions: not given

Structure (SMILES) | Papp B→A
COc1cc2c(cc1OC)CN(Cc1ccc3ccccc3c1)CC2 | 180 ×10⁻⁶ cm/s
COc1cc2c(cc1OC)CN(Cc1ccccc1-c1ccccc1)CC2 | 197 ×10⁻⁶ cm/s

Now from value to compound:

Papp B→A | Structure (SMILES)
415 ×10⁻⁶ cm/s | COc1cc2c(cc1OC)CN(C(=O)c1ccc3ccccc3c1)CC2
244 ×10⁻⁶ cm/s | COc1cc2c(cc1OC)CN(C(=O)c1ccc(-c3ccccc3)cc1)CC2
190 ×10⁻⁶ cm/s | COc1cc2c(cc1OC)CN(C(=O)c1ccc3cc(O)ccc3c1)CC2
277 ×10⁻⁶ cm/s | COc1cc2c(cc1OC)CN(C(=O)c1ccc(-c3ccc(O)cc3)cc1)CC2
366 ×10⁻⁶ cm/s | COc1cc2c(cc1OC)CN(Cc1cccc(-c3ccccc3)c1)CC2
235 ×10⁻⁶ cm/s | COc1cc2c(cc1OC)CN(Cc1ccc3cc(O)ccc3c1)CC2
123 ×10⁻⁶ cm/s | COc1ccc2cc(C(=O)N3CCc4cc(OC)c(OC)cc4C3)ccc2c1
141 ×10⁻⁶ cm/s | COc1cc2c(cc1OC)CN(Cc1ccc(-c3ccccc3)cc1)CC2
60.9 ×10⁻⁶ cm/s | COc1cc2c(cc1OC)CN(Cc1ccc(-c3ccc(O)cc3)cc1)CC2

Test system: not listed separately
Experiment: Inhibition of human P-gp mediated [3H]vinblastine transport activity in human Caco-2 cells
Format: cell-based
Conditions: Caco-2, 2 h

Structure (SMILES) | EC50
COc1cc2c(cc1OC)CN(CC/C=C1\CCCc3c(OC)cccc31)CC2 | 1640 nM
COc1cc2c(cc1OC)CN(CCc1ccc(NC(=O)c3cccc4c(=O)c5cccc(OC)c5[nH]c34)cc1)CC2 | 2000 nM
COc1cc2c(cc1OC)CN(Cc1ccc3ccccc3c1)CC2 | 800 nM
COc1cc2c(cc1OC)CN(Cc1ccccc1-c1ccccc1)CC2 | 15000 nM
COc1ccc2cc(CN3CCc4cc(OC)c(OC)cc4C3)ccc2c1 | 300 nM

Second part, the compound after the results:

EC50 | Structure (SMILES)
20000 nM | COc1cc2c(cc1OC)CN(C(=O)c1ccc3ccccc3c1)CC2
28000 nM | COc1cc2c(cc1OC)CN(C(=O)c1ccc(-c3ccccc3)cc1)CC2
650 nM | COc1cc2c(cc1OC)CN(C(=O)c1ccc3cc(O)ccc3c1)CC2
3500 nM | COc1cc2c(cc1OC)CN(C(=O)c1ccc(-c3ccc(O)cc3)cc1)CC2
6500 nM | COc1cc2c(cc1OC)CN(Cc1cccc(-c3ccccc3)c1)CC2
450 nM | COc1cc2c(cc1OC)CN(Cc1ccc3cc(O)ccc3c1)CC2
18000 nM | COc1ccc2cc(C(=O)N3CCc4cc(OC)c(OC)cc4C3)ccc2c1
100 nM | COc1cc2c(cc1OC)CN(Cc1ccc(-c3ccccc3)cc1)CC2
50 nM | COc1cc2c(cc1OC)CN(Cc1ccc(-c3ccc(O)cc3)cc1)CC2

Target: T2, BCRP (ABCG2) (Homo sapiens, UniProt Q9UNQ0)
T2 sequence (Q9UNQ0 whole entry): T1 sequence (Q9UNQ0 whole entry)
Experiment: Inhibition of human BCRP mediated [3H]mitoxantrone transport activity in human Caco-2 cells at 100 uM
Format: cell-based
Conditions: Caco-2, probe [3H]mitoxantrone

Structure (SMILES) | inhibition at 100 µM
COc1cc2c(cc1OC)CN(Cc1ccc(-c3ccc(O)cc3)cc1)CC2 | 19%

Test system: not listed separately
Experiment: Activity at P-pg
Conditions: not given

EC50 | Structure (SMILES)
550 nM | COc1cccc2c1CCCC2CCCN1CCN(C2CCCCC2)CC1 (stereo not drawn)

Test system: Caco-2
Experiment: Ratio of permeability from […] side of human Caco-2 cell membrane
Format: ADME, cell-based
Conditions: not given

Ratio | Structure (SMILES)
3.6 | COc1ccc2cc(CN3CCc4cc(OC)c(OC)cc4C3)ccc2c1

Test system: MCF7
Experiment: Antiproliferative activity against adriamycin resistant human MCF7 cells after 24 hrs by MTT assay
Format: functional, cell-based
Conditions: not given

Structure (SMILES) | Activity
COc1cc2c(cc1OC)CN(Cc1ccc(-c3ccccc3)cc1)CC2 | inactive
COc1cc2c(cc1OC)CN(Cc1ccc(-c3ccc(O)cc3)cc1)CC2 | inactive

Test system: Caco-2
Experiment: (§2) Apparent permeability from apical to basolateral side of human Caco-2 cell membrane
Format: ADME, cell-based
Conditions: not given

Papp | Structure (SMILES)
187 nm/s | COc1ccc2cc(CN3CCc4cc(OC)c(OC)cc4C3)ccc2c1

Test system: not listed separately
Experiment: as §2
Format: ADME, cell-based
Conditions: not given

Structure (SMILES) | Papp A→B
COc1cc2c(cc1OC)CN(Cc1ccc3ccccc3c1)CC2 | 21.6 ×10⁻⁶ cm/s
COc1cc2c(cc1OC)CN(Cc1ccccc1-c1ccccc1)CC2 | 21.6 ×10⁻⁶ cm/s

Second part, the compound after the results:

Papp A→B | Structure (SMILES)
32.4 ×10⁻⁶ cm/s | COc1cc2c(cc1OC)CN(C(=O)c1ccc3ccccc3c1)CC2
60.1 ×10⁻⁶ cm/s | COc1cc2c(cc1OC)CN(C(=O)c1ccc(-c3ccccc3)cc1)CC2
25.1 ×10⁻⁶ cm/s | COc1cc2c(cc1OC)CN(C(=O)c1ccc3cc(O)ccc3c1)CC2
28 ×10⁻⁶ cm/s | COc1cc2c(cc1OC)CN(C(=O)c1ccc(-c3ccc(O)cc3)cc1)CC2
30.1 ×10⁻⁶ cm/s | COc1cc2c(cc1OC)CN(Cc1cccc(-c3ccccc3)c1)CC2
35.3 ×10⁻⁶ cm/s | COc1cc2c(cc1OC)CN(Cc1ccc3cc(O)ccc3c1)CC2
19.3 ×10⁻⁶ cm/s | COc1ccc2cc(C(=O)N3CCc4cc(OC)c(OC)cc4C3)ccc2c1
77.7 ×10⁻⁶ cm/s | COc1cc2c(cc1OC)CN(Cc1ccc(-c3ccccc3)cc1)CC2
47.6 ×10⁻⁶ cm/s | COc1cc2c(cc1OC)CN(Cc1ccc(-c3ccc(O)cc3)cc1)CC2
